This passage reports IC50 results from US8962830B2, “Protein kinase inhibitors and methods of treatment” (The Walter and Eliza Hall Institute of Medical Research, priority 2010, dated 2015).

Assay [1] has as its system LIM2537. The assay can be described thus: Cellular activity, MTT cell growth assay, LIM2537. It counts as cell-based. Particulars: 96 h, 4 days incubation. On the procedure:
(§1) A. Cells, Inhibitors and Incubation
(§2) 1. Cell Lines • LIM 1899 colon carcinoma derived epithelial cells were grown in RPMI+Adds^1+10% FCS. ^1 Additives for culture of LIM cell lines: 10 μM thioglycerol, 0.025 U/mL insulin, 1 μg/mL hydrocortisone
(§3) 2. Cell Plating in 96 Well Plate. • Assay medium: RPMI+Adds+5% FCS • Cells are trypsinized, washed once in assay medium and brought to the required concentration as described below: • Need 10^4 cells per well in 100 μL per well=10^5 per mL for plating • After washing, cells were resuspended in 5 mL and counted (1×T75 flask gives approx 2−3×10 eg^6 per mL). • Cells were then diluted to 10^5 cells/mL (need 10 mL minimum per plate). • Eg. Cell count in 5 mL is 25×10^5/mL • For 10^5/mL, dilute 1 mL to 25 mL • 100 μL per well cells were plated with multistepper pipette, over the whole plate. Plates were incubated overnight at 37° C.+5% CO2 incubator.
(§4) 3. Inhibitor Stocks • Inhibitors were dissolved in DMSO for 10 mM stocks. MW and amount of compound given was used to calculate the volume required for each. • 4× the highest concentration of the compound in the assay was calculated to prepare the working stocks. • eg 1st well final concentration in assay was 10 μM. • Therefore working stock was 40 μM • Stock solution is 10 mM→40 μM=4 μl in 1.0 mL assay medium for working stock.
(§5) 4. Plate Plan: • Rows A,B: Inhibitor 1 • Rows C,D: Inhibitor 2 • Rows E,F: Inhibitor 3 • Row G: RPMI+Adds+5% FCS (=maximum growth) • Row H: RPMI+Adds serum free (=minimum growth)
(§6) 5. Titration of Inhibitors • A 96 well plate was used to titrate the inhibitors for each assay plate: • 150 μL assay medium was added to each well of a 96 well plate. • 150 μL of Inhibitor 1 working stock was added wells A1 and B1. • Repeated with Inhibitor 2 to C1 and D1 • Repeated with Inhibitor 3 to E1 and F1 • Serial ½ dilutions were performed across the plate, rows A to F, left to right with 150 μL.
(§7) 6. Transfer Titrated Inhibitors to Cell Assay Plate: Final Volume 200 μl • Using a multichannel pipette, 100 μL was transferred from the corresponding wells of the titration plate to the cell assay plate, rows A to G. • Row H: medium was carefully removed from the cell wells with a 200 μL tip, and replaced with 200 μL serum free medium.
(§8) 7. Incubation • Plates were incubated for 4 days at 37° C. with 5% CO2.
(§9) B. Use of MTT to Measure Cell Growth
(§10) 1. MTT Preparation and Storage • MTT Sigma M-2128 5 g • Dissolved in PBS, at 5 mg/mL • 5 g bottle dissolved in 1 liter PBS (some impurities remain) • Filter sterilized and aliquoted in 50 mL tubes, stored at −20° C. • As needed, 50 mL tube was thawed and aliquoted in 5 mL tubes, re-stored at −20° C. • Stable at 4° C. for 1 month (unstable if left at 37° C. too long while thawing)
(§11) 2. MTT Solvent • a. 1M HCl: • Mixed 44.6 mL conc HCl (11.2M) in 500 mL DDW • b. Acidified isopropanol (Isopropanol with 0.04 N HCl): • Mixed 20 mL 1M HCl with 480 mL isopropanol (Propan-2-ol, iso-Propyl Alcohol)
(§12) 3. MTT Assay • After cell incubation (above): • Added 10 μL MTT to each well. • Incubated 4 hrs in 37° C. incubator. • Spun plates, 5 min, 1500 rpm. • Carefully flicked out medium into the sink, without disturbing the crystals. • Added 200 μL acidified isopropanol per well. • Placed on plate shaker, RT, speed 6.5, for 10 min-30 min. • Read OD of plates on Thermo Multiskan Ex, at 560/690 nm.
(§13) • Mosmann, T. • Rapid colorimetric assay for cellular growth and survival: application to proliferation and cytotoxic assays. Journal of Immunological Methods (1983), 65:55-63. Table with Examples of Cellular Data
(§14) The compounds in this invention display cellular activities against a range of tumour or transformed cell lines in particular colon cancer cell lines such as LIM1215, LIM2537 and LIM1899.

Assay [2] has as its system LIM 1899 colon carcinoma derived epithelial cells. The assay can be described thus: Cellular activity, MTT cell growth assay, LIM1899. The format is cell-based. The conditions noted are these: 96 h, 4 days incubation. On the procedure: as §1, §2, §3, §4, §5, §6, §7, §8, §9, §10, §11, §12, §13, §14
On the technique in general: Tetrazolium assays rely on reduction of a dye to a coloured formazan, in cell work by metabolically active cells.

The subject of assay [3] is RasNIH3T3. Description: Cellular activity, MTT cell growth assay, RasNIH3T3. It counts as cell-based. Particulars: 96 h; MTT, 4 days incubation; read-out: RasNIH3T3 (cellular data).
The subject of assay [4] is LIM1215. The assay can be described thus: Cellular activity, MTT cell growth assay, LIM1215. The format is cell-based. The conditions noted are these: LIM1215, 96 h; MTT, 4 days incubation; read-out: LIM1215 (cellular data). As to the method:
as §1, §2, §3, §4, §5, §6, §7, §8, §9, §10, §11, §12, §13, §14

The target of assay [5] is T1, Src recombinant enzyme, N-terminally His6 tagged full-length human protein (Homo sapiens, UniProt P12931).
T1 construct: Src recombinant enzyme was purchased as N-terminally His6 tagged full-length human protein; His6 (N); purchased
T1 sequence (P12931 whole entry): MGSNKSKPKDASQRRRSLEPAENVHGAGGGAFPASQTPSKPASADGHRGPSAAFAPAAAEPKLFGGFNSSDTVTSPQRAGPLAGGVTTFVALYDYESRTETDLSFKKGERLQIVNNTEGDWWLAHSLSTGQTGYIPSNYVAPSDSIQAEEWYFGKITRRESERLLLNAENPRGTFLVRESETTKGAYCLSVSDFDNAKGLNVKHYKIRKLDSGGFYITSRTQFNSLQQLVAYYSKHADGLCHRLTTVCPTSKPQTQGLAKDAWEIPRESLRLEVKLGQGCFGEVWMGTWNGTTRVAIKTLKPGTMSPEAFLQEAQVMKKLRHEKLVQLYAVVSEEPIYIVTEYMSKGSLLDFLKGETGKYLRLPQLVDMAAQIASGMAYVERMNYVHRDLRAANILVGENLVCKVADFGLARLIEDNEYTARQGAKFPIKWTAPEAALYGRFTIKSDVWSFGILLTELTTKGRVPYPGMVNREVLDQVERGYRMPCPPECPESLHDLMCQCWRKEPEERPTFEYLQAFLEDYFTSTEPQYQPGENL
The assay can be described thus: SRC kinase inhibition assay (AlphaScreen). It counts as biochemical. Particulars: 80 μM ATP, 90 minutes at 30 degree Celsius. On the procedure:
Protocol for SRC Kinase Inhibition Assay. Compounds of the invention were tested for in vitro activity in the following assay: A biotin labeled peptide was used as substrate (amino acid sequence: Biotin-[…]). Src recombinant enzyme was purchased as N-terminally His6 tagged full-length human protein. The 15 μL assay reactions were run in Greiner brand white 384-well low volume plates. […] Compounds were added in a volume of 100 nL from dilution series made up in DMSO, positive and negative control reactions receiving the same volume DMSO without compounds. The plates were sealed with adhesive seals and incubated for 90 minutes at 30 degree Celsius. The reactions were stopped with the detection reagents added at the same time. Product formation was quantified as photochemiluminescence between PerkinElmer AlphaScreenTM beads, using Streptavidin-coated donor and anti-phosphotyrosine (P-[…]) acceptor beads. […] Plates were incubated for 5 hours before being read on a PerkinElmer EnVisionTM plate reader in HTS AlphascreenTM mode. IC50 values were obtained by calculating percent inhibition (% I) for each reaction relative to controls on the same plate (% [SMILES] where CN/CP are the averages of the negative/positive reactions, respectively), then fitting the % I data vs. compound concentration [I] to % I=([…])))) where A is the lower asymptote, B is the upper asymptote, C is the IC50 value, and D is the slope factor.
For orientation: In Alpha technology, singlet oxygen from a donor bead excites a nearby acceptor bead.

Where only a bound is given, the exact number is not on record here.

In the case of `CC(C)(CNC(=O)c1ccccc1)n1nc(-c2ccc(Cl)cc2)c2c(N)ncnc21` [74 (compound 74F)], the IC50 in assay [1] was above 10 µM; in assay [2] it was above 20 µM.

For the compound `Cc1nc(Nc2ncc(C(=O)Nc3c(C)cccc3Cl)s2)cc(N2CCN(CCO)CC2)n1` [Dasatinib, reference compound], the figures for the IC50 in assay [2], in assay [3] and in assay [4] were 1.2 µM, 9 to 12 µM and 2 µM, respectively.

`Cc1ccc(-c2nn(C(C)(C)CNC(=O)c3ccccc3)c3ncnc(N)c23)cc1` [Example 11]: the IC50 is 0.1 to 1 µM in assay [5] and 1.7 µM in assay [2].

`Cc1ccc(-c2nn(C(C)(C)CNC(=O)c3cc(Br)ccn3)c3ncnc(N)c23)cc1` [Example 42]: the IC50 in assay [5] is 0.001 to 0.1 µM; in assay [3], 1.9 µM; in assay [4], 0.9 µM.

For the compound `Cc1ccc(-c2nn(C(C)(C)CNC(=O)c3ccc(F)cc3)c3ncnc(N)c23)cc1` [Example 53], the IC50 in assay [5] was 0.1 to 1 µM.

`Cc1ccc(-c2nn(C(C)(C)CNC(=O)c3ccccc3F)c3ncnc(N)c23)cc1` [Example 54]: the IC50 in assay [5] was in the range of 0.1 to 1 µM.

For the compound `Cc1ccc(-c2nn(C(C)(C)CNC(=O)c3cccc(F)c3)c3ncnc(N)c23)cc1` [Example 55], the IC50 in assay [5] lay in the range of 1 to 10 µM.

Take `Cc1ccc(-c2nn(C(C)(C)CNC(=O)c3cnccn3)c3ncnc(N)c23)cc1` [Example 56]: the values for the IC50 in assay [5], in assay [3] and in assay [4] were 0.001 to 0.1 µM, 1.62 µM and 0.4 µM, respectively.

Take `Cc1ccc(-c2nn(C(C)(C)CNC(=O)c3cncnc3)c3ncnc(N)c23)cc1` [Example 57]: the IC50 is 1 to 10 µM in assay [5], above 20 µM in assay [3] and 1.6 µM in assay [4].

Consider `Cc1ccc(-c2nn(C(C)(C)CNC(=O)c3ncccn3)c3ncnc(N)c23)cc1` [Example 58], for which, in assay [5], the IC50 lay within 0.001 to 0.1 µM.

As for `Cc1ccc(-c2nn(C(C)(C)CNS(=O)(=O)c3ccccc3)c3ncnc(N)c23)cc1` [Example 59], the results for the IC50 in assay [5], in assay [3] and in assay [4] were 0.1 to 1 µM, above 20 µM and 3.1 µM, respectively.

Regarding `Cc1ccc(-c2nn(C(C)(C)CNC(=O)c3cccnc3)c3ncnc(N)c23)cc1` [Example 60], the values for the IC50 in assay [5], in assay [3] and in assay [4] were 0.1 to 1 µM, 17 µM and 1.9 µM, respectively.

On to `COc1ccnc(C(=O)NCC(C)(C)n2nc(-c3ccc(C)cc3)c3c(N)ncnc32)c1` [Example 61], for which the IC50 in assay [5] is 0.001 to 0.1 µM; in assay [2], 1.6 µM; in assay [3], 1.83 µM; in assay [4], 0.8 µM.

For `Cc1ccc(-c2nn(C(C)(C)CNC(=O)c3ccncn3)c3ncnc(N)c23)cc1` [Example 62], the IC50 in assay [5] is 0.001 to 0.1 µM; in assay [3], 0.35 µM; in assay [4], 0.25 µM.

As for `Cc1ccc(-c2nn(C(C)(C)CNC(=O)c3cc(Cl)ccn3)c3ncnc(N)c23)cc1` [Example 63], the IC50 in assay [5] was 0.1 to 1 µM; in assay [2], 1.7 µM; in assay [3], 6.29 µM; in assay [4], 2.6 µM.

`Cc1ccc(-c2nn(C(C)(C)CNC(=O)c3cscn3)c3ncnc(N)c23)cc1` [Example 64]: the IC50 in assay [1] is 1.1 µM; in assay [5], 0.001 to 0.1 µM; in assay [2] it was 0.88 µM; in assay [3] it was 0.63 µM.

Regarding `Cc1ccc(-c2nn(C(C)(C)CNC(=O)c3cc(C)ccn3)c3ncnc(N)c23)cc1` [Example 65], the IC50 in assay [5] was 0.1 to 1 µM; in assay [2] it was 0.9 µM; in assay [3], 1.67 µM; in assay [4], 0.96 µM.

As for `Cc1ccc(-c2nn(C(C)(C)CNC(=O)c3cc(-c4ccccc4)ccn3)c3ncnc(N)c23)cc1` [Example 66], the IC50 was 0.001 to 0.1 µM in assay [5], 0.31 µM in assay [2], 0.5 µM in assay [3] and 0.52 µM in assay [4].

Take `Cc1ccc(-c2nn(C(C)(C)CNC(=O)c3ccncc3)c3ncnc(N)c23)cc1` [Example 67]: the IC50 in assay [5] was in the range of 1 to 10 µM.

As to `Cc1ccc(-c2nn(C(C)(C)CNC(=O)c3ncccc3C)c3ncnc(N)c23)cc1` [Example 71], the IC50 in assay [5] is above 10 µM; in assay [2], 3.1 µM.

Turning to `Cc1ccc(-c2nn(C(C)(C)CNC(=O)c3ccc(C)cn3)c3ncnc(N)c23)cc1` [Example 72], the IC50 in assay [5] was in the range of 0.001 to 0.1 µM.

For the compound `Cc1ccc(-c2nn(C(C)(C)CNC(=O)c3cccc(C)n3)c3ncnc(N)c23)cc1` [Example 73], the IC50 was 1 to 10 µM in assay [5] and 1.1 µM in assay [2].

Take `CC(C)(CNC(=O)c1ccccn1)n1nc(-c2ccc(Cl)cc2)c2c(N)ncnc21` [Example 75]: the IC50 was 1.6 µM in assay [1], 0.001 to 0.1 µM in assay [5] and 0.9 µM in assay [2].

Regarding `Cc1ccc(-c2nn(C(C)(C)CNC(=N)c3ccccc3)c3ncnc(N)c23)cc1` [Example 76], the IC50 in assay [1] is above 10 µM; in assay [5], 1 to 10 µM; in assay [2] it was 19 µM.

For `Cc1ccc(-c2nn(C(C)(C)CNC(=N)c3ccccn3)c3ncnc(N)c23)cc1` [Example 77], the IC50 in assay [1] was above 10 µM; in assay [5], 0.001 to 0.1 µM.

As for `Cc1ccc(-c2nn(C(C)(C)CNC3=NCCN3)c3ncnc(N)c23)cc1` [Example 78], the IC50 in assay [5] fell in the range of 0.1 to 1 µM.

In the case of `CC(=N)NCC(C)(C)n1nc(-c2ccc(C)cc2)c2c(N)ncnc21` [Example 80], in assay [5], the IC50 lay in the range of 0.1 to 1 µM.

Turning to `Cc1ccc(-c2nn(C(C)(C)CNC(=N)NC#N)c3ncnc(N)c23)cc1` [Example 81], the IC50 in assay [5] is 0.001 to 0.1 µM.

With `Cc1ccc(-c2nn(C(C)(C)CNC(=O)c3cc(CN4CCCCC4)ccn3)c3ncnc(N)c23)cc1` [Example 82], the IC50 in assay [5] is 0.001 to 0.1 µM.

On to `Cc1ccc(-c2nn(C(C)(C)CNC(=O)c3cc(CN4CCOCC4)ccn3)c3ncnc(N)c23)cc1` [Example 83], for which, in assay [5], the IC50 was in the range of 0.001 to 0.1 µM.

Consider `Cc1ccc(-c2nn(C(C)(C)CNc3ncccn3)c3ncnc(N)c23)cc1` [Example 88], for which, in assay [5], the IC50 lay in the range of 0.1 to 1 µM.

Turning to `COCCOc1ccnc(C(=O)NCC(C)(C)n2nc(-c3ccc(C)cc3)c3c(N)ncnc32)c1` [Example 89], the IC50 in assay [5] lay within 0.001 to 0.1 µM.
